Experiment [1] deals with Plk1. Description: Direct Plk1 kinase assay with total HeLa lysates and [γ-32P]ATP using GST-PBIPtides as substrate. The format is biochemical, human. The settings on record: shPlk1 HeLa lysates, compared with PBIPtide4. Here is the method:
FIGS. 1A-1B are digital images of Western blots, a schematic representation of a kinase assay and a set of bar graphs showing that a peptide that contains the T78 motif of PBIP1 (a PBIPtide) can be used to quantitate the kinase activity of Plk1 in vitro. […] FIG. 1A Left, mitotic HeLa lysates were incubated with either bead-immobilized control glutathione S-transferase (GST) or GST-PBIPtide4 in TBSN buffer containing phosphatase inhibitors. Beads were precipitated and washed and then subjected to in vitro kinase assays in the presence of [γ-^32P]-ATP. Samples were separated by sodium dodecyl sulfate polyacrylamide gel electrophoresis (SDS/PAGE), transferred to polyvinylidene fluoride (PVDF), and then exposed (Autorad). The membrane was immunoblotted with the indicated antibodies and then stained with Coomassie (CBB). Note that the anti-p-T78 signal (α-p-T78 panel) is relatively weak because the incubation was carried out in TBSN at 4° C. FIG. 1A Right is schematic diagram illustrating the experimental procedures described in FIG. 1A Left. The ellipsoids depict bead-associated GST-PBIPtide containing the T78 motif. […] The GST-PBIPtide bands were excised, and incorporated 32P was quantified. […]
It was then determined whether the Plk1 activity present in total cellular lysates could be directly measured by incubating the lysates with GST-PBIPtide. […]

Experiment [2] has as its system Plk1. Description: PBIPtide-based Plk1 ELISA with shLuc/shPlk1 HeLa lysates. The settings on record: compared with PBIPtide4. For orientation: An ELISA detects its analyte on a solid surface through an enzyme-linked reagent.
Description: The ELISA wells were coated with soluble GST-PBIPtide containing the T78 motif and then reacted with total cellular lysates. The Plk1 activity in the total lysates generates the p-T78 epitope to which Plk1 itself binds. After reaction, Plk1 activity is quantified by incubating the ELISA wells with either anti-p-T78 antibody (to detect the p-T78 epitope generated) or anti-Plk1 antibody (to detect Plk1 bound to the p-T78 epitope), followed by HRP-conjugated secondary antibody (the grey antibody with a black dot). The asterisks indicate 3.3′, 5.5′-tetramethylbenzidine (TMB) substrate and its reaction product, generated by HRP. […] HeLa cells were silenced for control luciferase (shLuc) or Plk1 (shPlk1) and then treated with nocodazole for 16 hours to arrest the cells in prometaphase (a condition that maximizes Plk1 activity). […] Buffer indicates no-lysate control. The same lysates were subjected to immunoblotting analysis to determine the level of Plk1 in the lysates. […] GST-PBIPtide-A6-coated ELISA wells were incubated with the indicated amount of recombinant Plk1 purified from Sf9 cells. The level of the p-T78 epitope generated and the amount of Plk1 bound to the p-T78 GST-PBIPtide-A6 were quantified by using anti-p-T78 and anti-Plk1 antibodies, respectively. […] Total lysates were prepared from these cells and applied to the GST-PBIPtide-A6-coated wells. Buffer indicates no-lysate control. […]
The target of another experiment is T1, PBD of Plk1 (Homo sapiens, UniProt P53350).
T1 construct: made in house
Description: Binding of Plk1-phosphorylated 32P-PBIPtide-A6 to bead-bound GST-PBD. The settings on record: GST-PBD vs GST-PBD (H538A K540M), TBSN buffer, 1 hour at 4° C.

T1 sequence (P53350 326-603 limits assumed): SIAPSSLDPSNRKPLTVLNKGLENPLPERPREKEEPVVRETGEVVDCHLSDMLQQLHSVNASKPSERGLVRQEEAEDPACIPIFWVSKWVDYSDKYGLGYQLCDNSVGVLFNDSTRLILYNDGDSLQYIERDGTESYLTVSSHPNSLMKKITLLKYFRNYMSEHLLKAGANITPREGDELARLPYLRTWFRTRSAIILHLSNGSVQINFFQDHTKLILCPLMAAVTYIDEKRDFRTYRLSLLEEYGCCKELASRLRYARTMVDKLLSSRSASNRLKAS

“GST-PBIPtide-A6: N-terminal GST fusion of SEQ ID NO: 8; 6 repeats of the PBIPtide (Y68F T70A Y81F) triple mutant joined by GGPGG linkers”: the “Level of 32P incorporation after Plk1 depletion” value with Plk1 [1] is given as “mildly, but reproducibly, lower level”. For the same substance, in the experiment with Plk1 [2], the “Sensitivity to Plk1 activity” value is “mildly, but reproducibly, increased sensitivity”. In addition, the “PBD binding after Plk1-dependent phosphorylation of the T78 motif” value with PBD of Plk1 is “sufficient for the PBD binding”.

Source of the values: patent publication US20110076693A1, “METHOD FOR DETECTION AND QUANTIFICATION OF PLK1 EXPRESSION AND ACTIVITY” (The U.S.A. as Represented by the Secretary , Dept.of Health …, priority 2008, published 2011).
